Like-named read-outs stand apart in the source and are kept apart here.
Experiments:
[1] = prior art statement, background; cited from earlier work
[2] = prior art statement, background; cited from earlier work; remark: listed apart in the source
strains TA98 [3] = assay type: cell-based
Protocol: Further, the trisazo dye of the present invention is a nontoxic trisazo dye which gives negative results in a back mutation test using an organism, which is generally known as a test method for evaluating toxicity, i.e. AMES test (mutation test).
Evaluation method of Ames test
Regarding various specimen solutions respectively containing a trisazo dyes obtained in Examples 1 to 8 of the present invention and dyes of Comparative Examples 1 to 3, the number of mutant colonies was determined using strains TA98. 2. When the ratio is less than 2, it is "negative" and, when the ratio is more than 2, it is "positive", and the results are shown in Table. 1.

Hue of dye / writing = assay type: physicochemical
[4] = Water resistance of writing (drawdown paper dipped in tap water, reflection density); assay type: physicochemical; settings: drawndown paper, 3% dye solution, air-dried one day
Protocol: Light resistance: The resulting dye was dissolved in a 5% aqueous diethylene glycol solution to obtain a 3% dye solution. […] A degree of discoloration was compared with that before testing.
Water resistance: The drawndown paper was air-dried for one day and dipped in tap water.
A: Reflection density is more than 70% of that before testing.
B: Reflection density is 50 to 70% of that before testing.
C: Reflection density is less than 50% that before testing.

strains TA98 [5] = settings: prior art statement, background; cited from earlier work

Row | Structure (SMILES) | Light resistance of aqueous ink [1] | Water resistance of aqueous ink [2] | Ames test: ratio of the number of colonies to control (strains TA98 [3]; TA98, S-9 (+), 20 μg/plate) | Ames test: ratio of the number of colonies to control (strains TA98 [3]; TA98, S-9 (+), 78 μg/plate) | Ames test: ratio of the number of colonies to control (strains TA98 [3]; TA98, S-9 (+), 313 μg/plate) | Ames test: ratio of the number of colonies to control (strains TA98 [3]; TA98, S-9 (+), 1250 μg/plate) | Ames test: ratio of the number of colonies to control (strains TA98 [3]; TA98, S-9 (+), 5000 μg/plate) | Ames test: ratio of the number of colonies to control (strains TA98 [3]; TA98, S-9 (-), 20 μg/plate) | Ames test: ratio of the number of colonies to control (strains TA98 [3]; TA98, S-9 (-), 78 μg/plate) | Ames test: ratio of the number of colonies to control (strains TA98 [3]; TA98, S-9 (-), 313 μg/plate) | Ames test: ratio of the number of colonies to control (strains TA98 [3]; TA98, S-9 (-), 1250 μg/plate) | Ames test: ratio of the number of colonies to control (strains TA98 [3]; TA98, S-9 (-), 5000 μg/plate) | Hue (Hue of dye / writing) | Hue (Hue of dye / writing; listed as Comp. Example 3) | Writing evaluation: Water resistance [4] | Ames test result (strains TA98 [5]) | AMES evaluation (strains TA98 [3]; TA98, positive/negative from ratio of colonies to control) | Hue (Hue of dye / writing; listed as Comparative Example 1)
1 | Nc1cc2c(O)c(N=Nc3ccc(N=Nc4ccc(S(=O)(=O)[O-])cc4)c4ccc(S(=O)(=O)[O-])cc34)c(S(=O)(=O)[O-])cc2cc1S(=O)(=O)[O-].[Na+].[Na+].[Na+].[Na+] [Food Black 2] | poor | poor |  |  |  |  |  |  |  |  |  |  |  |  |  |  |  | 
2 | Cc1cc(-c2ccc(N=Nc3c(S(=O)(=O)[O-])cc4cc(S(=O)(=O)[O-])c(N=Nc5ccccc5)c(O)c4c3N)c(C)c2)ccc1N=Nc1ccc(N)cc1N.[Na+].[Na+] [compound 3, C.I. Direct Black 154, reference compound] |  |  | 1.92 | 2.35 | 2.50 | 1.50 | 0.85 | 0.72 | 0.68 | 0.84 | 0.76 | 0.96 | Greenish | greenish black | B (Reflection density is 50 to 70% of that before testing.) | false positive or positive |  | 
3 | Nc1ccc(N=Nc2ccc(Nc3ccc(N=Nc4c(S(=O)(=O)O)cc5cc(S(=O)(=O)O)c(N=Nc6ccccc6)c(O)c5c4N)cc3S(=O)(=O)O)cc2)c(O)c1 [compound 1, C.I. Direct Black 168, reference compound] |  |  | 0.83 | 0.88 | 1.08 | 1.38 | 3.38 | 0.82 | 1.13 | 0.88 | 0.88 | 0.88 | Reddish |  | C (Reflection density is less than 50% that before testing.) | false positive or positive | False positive | Reddish black
